Data taken from BindingDB's records for doi:10.1016/0014-2999(96)00122-7 (Synaptic Pharmaceutical, 1996).

molecular target: 5-hydroxytryptamine receptor 4 (Rattus norvegicus, UniProt Q62758)
Sequence (Q62758 whole entry): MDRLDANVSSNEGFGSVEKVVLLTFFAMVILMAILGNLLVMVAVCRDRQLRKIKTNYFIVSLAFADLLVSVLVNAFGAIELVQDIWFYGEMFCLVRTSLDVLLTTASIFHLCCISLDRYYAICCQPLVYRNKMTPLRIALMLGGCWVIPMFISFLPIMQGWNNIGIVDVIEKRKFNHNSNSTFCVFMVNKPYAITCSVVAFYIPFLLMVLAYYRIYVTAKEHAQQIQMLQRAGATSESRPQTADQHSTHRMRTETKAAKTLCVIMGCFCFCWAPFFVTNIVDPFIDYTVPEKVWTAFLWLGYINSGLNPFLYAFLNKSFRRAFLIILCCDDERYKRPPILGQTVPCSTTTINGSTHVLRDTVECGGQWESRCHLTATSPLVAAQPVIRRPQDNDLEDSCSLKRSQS

Row | Compound | Ki
1 | CN1C2CCC1CC(OC(=O)c1c[nH]c3ccccc13)C2 (stereo unspecified) | 159 nM
2 | COc1cc(N)c(Cl)cc1C(=O)NC1CCN2CCCC1C2 (stereo unspecified) [NSC_3035240] | 27 nM
3 | COc1cc(N)c(Cl)cc1C(=O)NC1CCN(CCCOc2ccc(F)cc2)CC1OC (stereo unspecified) [4-amino-5-chloro-N-(1-(3-(4-fluorophenoxy)propyl)-3-methoxypiperidin-4-yl)-2-methoxybenzamide] | 25 nM
4 | COc1ccc2[nH]cc(CCN)c2c1 [tryptamine, 5-Methoxy] | 112 nM
5 | Cn1cc(CCN)c2cc(O)ccc21 [5-HT,omega-N-Me] | 263 nM
6 | NCCc1c[nH]c2ccc(C(N)=O)cc12 [[3H]-5-carboxamidotryptamine] | 1000 nM
